# Measurements reported in patent US20100210568A1, “T[…] HORMONE FOR […] APPLICATIONS” (priority 2007, published 2010).
# Tested on: drug-resistant Mycobacterium tuberculosis
# Details: peptide 10 micrograms per ml, seven days
structure (smiles),measurement,value
"NC(=O)[C@@H]1CCCN1C(=O)[C@H](Cc1cnc[nH]1)NC(=O)[C@@H]1CCC(=O)N1 [TRH, Pyr-His-Pro-NH2]",% inhibition,0.0%
